Reference: US20070117743A1, “New antitumoral compounds” (priority 2003, published 2007)
Like-named read-outs stand apart in the source and are kept apart here. Where a SMILES comes first, the peptide text is derived from it. Bridges are numbered along the chain shown (N, C = ends). [ ]: non-standard residue; d: D form. The star is where a group is joined. d(aIle) = CC[C@H](C)[C@@H](N)C(=O)O; d(aThr) = C[C@@H](O)[C@@H](N)C(=O)O; Hexanoyl(5-Me) = CC(C)CCCC(=O)*; Orn = NCCC[C@H](N)C(=O)O; Dhb = C/C=C(\N)C(=O)O; Dha = C=C(N)C(=O)O

How the values were obtained:
Type in all cases: cell-based, human
[1] = test system: LoVo-Dox; test: SRB colorimetric assay of cell growth and viability, LoVo-Dox; conditions: 48 hours exposure; for CC50: read-out: LC50 LOVO-DOX
Method in brief: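 Tumor cells are continuously exposed to sample for 48 hours, with vehicle DMSO:EtOH:PBS (0.5:0.5:99), after an 18-hour drug-free attachment period. Bound SRB, measured at 490 nm, reflects cell mass; GI, TGI and LC are derived from triplicate means.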

[2] = test system: HT-29; test: SRB colorimetric assay of cell growth and viability, HT-29; conditions: 48 hours exposure; for GI50: read-out: GI50 HT-29; for CC50: read-out: LC50 HT-29
[3] = test system: A-549; test: SRB colorimetric assay of cell growth and viability, A-549; conditions: 48 hours exposure; for GI50: read-out: GI50 A-549; for CC50: read-out: LC50 A-549
[4] = test system: SK-BR-3; test: SRB colorimetric assay of cell growth and viability, SK-BR-3; conditions: 48 hours exposure
[5] = test system: IGROV-1; test: SRB colorimetric assay of cell growth and viability, IGROV-1; conditions: 48 hours exposure
[6] = test system: K-562; test: SRB colorimetric assay of cell growth and viability, K-562; conditions: 48 hours exposure; for CC50: read-out: LC50 K-562
[7] = test system: DU-145; test: SRB colorimetric assay of cell growth and viability, DU-145; conditions: 48 hours exposure
[8] = test system: PANC-1; test: SRB colorimetric assay of cell growth and viability, PANC-1; conditions: 48 hours exposure; for CC50: read-out: LC50 PANC-1
[9] = test system: LoVo; test: SRB colorimetric assay of cell growth and viability, LoVo; conditions: 48 hours exposure; for CC50: read-out: LC50 LOVO
[10] = test system: SK-MEL-28; test: SRB colorimetric assay of cell growth and viability, SK-MEL-28; conditions: 48 hours exposure; for CC50: read-out: LC50 MEL-28
[11] = test system: IGROV-ET; test: SRB colorimetric assay of cell growth and viability, IGROV-ET; conditions: 48 hours exposure; for CC50: read-out: LC50 IGROV-ET
[12] = test system: LNCaP; test: SRB colorimetric assay of cell growth and viability, LNCaP; conditions: 48 hours exposure; for GI50: read-out: GI50 LN-caP; for CC50: read-out: LC50 LN-caP
[13] = test system: HeLa; test: SRB colorimetric assay of cell growth and viability, HeLa; conditions: 48 hours exposure; for CC50: read-out: LC50 HELA
[14] = test system: HeLa-APL; test: SRB colorimetric assay of cell growth and viability, HeLa-APL; conditions: 48 hours exposure; for CC50: read-out: LC50 HELA-APL

C/C=C1\NC(=O)[C@H](Cc2ccccc2)NC(=O)[C@@H](C(C)C)NC(=O)[C@@H]([C@@H](C)CC)NC(=O)[C@H](NC(=O)[C@H](NC(=O)[C@H](CCCN)NC(=O)[C@H]2CCCN2C(=O)[C@H](NC(=O)[C@@H](NC(=O)[C@@H](NC(=O)[C@H](NC(=O)CCCCC(C)=O)C(C)C)[C@@H](C)O)C(C)C)C(C)C)[C@@H](C)CC)[C@@H](C)OC(=O)[C@H](C(C)C)NC1=O [Compound 27, [6-OHep^14]-KF]
GI50 [1]: 2.14 µM | TGI LOVO-DOX [1]: 6.70E−06 Molar | CC50 [1]: 6.7 µM | TGI HT-29 [2]: 6.70E−06 Molar | GI50 [2]: 6.7 µM | CC50 [2]: 6.7 µM | TGI A-549 [3]: 6.70E−06 Molar | GI50 [3]: 6.7 µM | CC50 [3]: 6.7 µM | GI50 [4]: 3.16 µM | LC50 [4]: 6.7 µM | TGI SK-BR-3 [4]: 6.70E−06 Molar | GI50 [5]: 6.7 µM | LC50 (concentration causing 50% net cell killing) [5]: 6.7 µM | TGI IGROV [5]: 6.70E−06 Molar | GI50 [6]: 6.7 µM | TGI K-562 [6]: 6.70E−06 Molar | CC50 [6]: 6.7 µM | GI50 [7]: 6.7 µM | LC50 (concentration causing 50% net cell kill) [7]: 6.7 µM | TGI DU-145 [7]: 6.70E−06 Molar | GI50 [8]: 6.7 µM | TGI PANC-1 [8]: 6.70E−06 Molar | CC50 [8]: 6.7 µM | GI50 [9]: 3.5 µM | TGI LOVO [9]: 6.70E−06 Molar | CC50 [9]: 6.7 µM | GI50 [10]: 6.7 µM | TGI MEL-28 [10]: 6.70E−06 Molar | CC50 [10]: 6.7 µM | GI50 [11]: 6.7 µM | TGI IGROV-ET [11]: 6.70E−06 Molar | CC50 [11]: 6.7 µM | TGI LN-caP [12]: 6.70E−06 Molar | GI50 [12]: 6.7 µM | CC50 [12]: 6.7 µM | GI50 [13]: 6.7 µM | TGI HELA [13]: 6.70E−06 Molar | CC50 [13]: 6.7 µM | GI50 [14]: 6.7 µM | TGI HELA-APL [14]: 6.70E−06 Molar | CC50 [14]: 6.7 µM

C=C1NC(=O)[C@H](Cc2ccccc2)NC(=O)[C@@H](C(C)C)NC(=O)[C@@H]([C@@H](C)CC)NC(=O)[C@H](NC(=O)[C@H](NC(=O)[C@H](CCCN)NC(=O)[C@H]2CCCN2C(=O)[C@H](NC(=O)[C@@H](NC(=O)[C@@H](NC(=O)[C@H](NC(=O)CCCC(C)C)C(C)C)[C@@H](C)O)C(C)C)C(C)C)[C@@H](C)CC)[C@@H](C)OC(=O)[C@H](C(C)C)NC1=O [Compound 67, [Dha^2]-KF] ({Hexanoyl(5-Me)}-[dV]TV[dV][dP][Orn][d(aIle)][d(aThr)][d(aIle)][dV]F[Dha]V; ester 8-C)
GI50 ([1]; SRB): 0.264 µM | TGI LOVO-DOX ([1]; SRB): 5.61E−06 Molar | CC50 ([1]; SRB): 2.47 µM | TGI HT-29 ([2]; SRB): 9.63E−07 Molar | GI50 ([2]; SRB): 0.347 µM | CC50 ([2]; SRB): 4.17 µM | TGI A-549 ([3]; SRB): 2.70E−06 Molar | GI50 ([3]; SRB): 1.44 µM | CC50 ([3]; SRB): 5.06 µM | GI50 ([4]; SRB): 0.32 µM | LC50 ([4]; SRB): 2.21 µM | TGI SK-BR-3 ([4]; SRB): 5.56E−07 Molar | GI50 ([5]; SRB): 0.553 µM | LC50 (concentration causing 50% net cell killing) ([5]; SRB): 4.59 µM | TGI IGROV ([5]; SRB): 1.58E−06 Molar | GI50 ([6]; SRB): 2.92 µM | TGI K-562 ([6]; SRB): 6.83E−06 Molar | CC50 ([6]; SRB): ≥ 6.83 µM | GI50 ([7]; SRB): 0.915 µM | LC50 (concentration causing 50% net cell kill) ([7]; SRB): 3.4 µM | TGI DU-145 ([7]; SRB): 1.77E−06 Molar | GI50 ([8]; SRB): ≥ 6.83 µM | TGI PANC-1 ([8]; SRB): 6.83E−06 Molar | CC50 ([8]; SRB): ≥ 6.83 µM | GI50 ([9]; SRB): 0.173 µM | TGI LOVO ([9]; SRB): 3.40E−07 Molar | CC50 ([9]; SRB): 0.669 µM | GI50 ([10]; SRB): 1.13 µM | TGI MEL-28 ([10]; SRB): 2.25E−06 Molar | CC50 ([10]; SRB): 4.51 µM | GI50 ([11]; SRB): 0.39 µM | TGI IGROV-ET ([11]; SRB): 1.33E−06 Molar | CC50 ([11]; SRB): 4.53 µM | TGI LN-caP ([12]; SRB): 4.60E−06 Molar | GI50 ([12]; SRB): 1.83 µM | CC50 ([12]; SRB): ≥ 6.83 µM | GI50 ([13]; SRB): 1.15 µM | TGI HELA ([13]; SRB): 2.15E−06 Molar | CC50 ([13]; SRB): 4 µM | GI50 ([14]; SRB): 1.09 µM | TGI HELA-APL ([14]; SRB): 2.03E−06 Molar | CC50 ([14]; SRB): 3.75 µM

[(4RS)-MeHex^14]-KF [Compound 17]
GI50 [1]: 0.18 µM | TGI LOVO-DOX [1]: 3.66E−07 Molar | CC50 [1]: 1.27 µM | TGI HT-29 [2]: 2.84E−07 Molar | GI50 [2]: 0.147 µM | CC50 [2]: 0.55 µM | TGI A-549 [3]: 7.51E−07 Molar | GI50 [3]: 0.24 µM | CC50 [3]: 2.89 µM | GI50 [4]: 0.162 µM | LC50 [4]: 0.606 µM | TGI SK-BR-3 [4]: 3.14E−07 Molar | GI50 [5]: 0.185 µM | LC50 (concentration causing 50% net cell killing) [5]: 1.49 µM | TGI IGROV [5]: 3.96E−07 Molar | GI50 [6]: 2.37 µM | TGI K-562 [6]: 4.07E−06 Molar | CC50 [6]: ≥ 6.77 µM | GI50 [7]: 0.252 µM | LC50 (concentration causing 50% net cell kill) [7]: 2.65 µM | TGI DU-145 [7]: 8.39E−07 Molar | GI50 [8]: 3.82 µM | TGI PANC-1 [8]: 6.77E−06 Molar | CC50 [8]: ≥ 6.77 µM | GI50 [9]: 0.141 µM | TGI LOVO [9]: 2.67E−07 Molar | CC50 [9]: 0.503 µM | GI50 [10]: 1.3 µM | TGI MEL-28 [10]: 2.54E−06 Molar | CC50 [10]: 4.96 µM | GI50 [11]: 0.209 µM | TGI IGROV-ET [11]: 4.24E−07 Molar | CC50 [11]: 1.84 µM | TGI LN-caP [12]: 2.10E−06 Molar | GI50 [12]: 0.934 µM | CC50 [12]: 4.75 µM | GI50 [13]: 0.744 µM | TGI HELA [13]: 1.71E−06 Molar | CC50 [13]: 3.92 µM | GI50 [14]: 0.758 µM | TGI HELA-APL [14]: 1.86E−06 Molar | CC50 [14]: 4.59 µM

C/C=C1\NC(=O)[C@H](Cc2ccccc2)NC(=O)[C@@H](C(C)C)NC(=O)[C@@H]([C@@H](C)CC)NC(=O)[C@H](NC(=O)[C@H](NC(=O)[C@H](CCCN)NC(=O)[C@H]2CCCN2C(=O)[C@H](NC(=O)[C@H](CCCN)NC(=O)[C@@H](NC(=O)[C@H](NC(=O)CCCC(C)C)C(C)C)[C@@H](C)O)C(C)C)[C@@H](C)CC)[C@@H](C)OC(=O)[C@H](C(C)C)NC1=O [Compound 49, [Orn^11]-KF] ({Hexanoyl(5-Me)}-[dV]T[Orn][dV][dP][Orn][d(aIle)][d(aThr)][d(aIle)][dV]F[Dhb]V; ester 8-C)
GI50 [1]: 3.22 µM | TGI LOVO-DOX [1]: 6.70E−06 Molar | CC50 [1]: 6.7 µM | TGI HT-29 [2]: 3.74E−06 Molar | GI50 [2]: 1.58 µM | CC50 [2]: 6.7 µM | TGI A-549 [3]: 6.70E−06 Molar | GI50 [3]: 2.61 µM | CC50 [3]: 6.7 µM | GI50 [4]: 1.94 µM | LC50 [4]: 6.7 µM | TGI SK-BR-3 [4]: 5.57E−06 Molar | GI50 [5]: 1.27 µM | LC50 (concentration causing 50% net cell killing) [5]: 5.97 µM | TGI IGROV [5]: 2.75E−06 Molar | GI50 [6]: 0.15 µM | TGI K-562 [6]: 1.67E−06 Molar | CC50 [6]: 6.7 µM | GI50 [7]: 1.09 µM | LC50 (concentration causing 50% net cell kill) [7]: 5.75 µM | TGI DU-145 [7]: 2.50E−06 Molar | GI50 [8]: 1.31 µM | TGI PANC-1 [8]: 3.09E−06 Molar | CC50 [8]: 6.7 µM | GI50 [9]: 1.47 µM | TGI LOVO [9]: 3.80E−06 Molar | CC50 [9]: 6.7 µM | GI50 [10]: 1.33 µM | TGI MEL-28 [10]: 2.50E−06 Molar | CC50 [10]: 4.69 µM | GI50 [11]: 1.91 µM | TGI IGROV-ET [11]: 5.15E−06 Molar | CC50 [11]: 6.7 µM | TGI LN-caP [12]: 6.70E−06 Molar | GI50 [12]: 2.2 µM | CC50 [12]: 6.7 µM | GI50 [13]: 1.1 µM | TGI HELA [13]: 2.20E−06 Molar | CC50 [13]: 4.4 µM | GI50 [14]: 1.07 µM | TGI HELA-APL [14]: 2.52E−06 Molar | CC50 [14]: 5.95 µM
